Assay results published in patent US20180208605A1, “Substituted Aza Compounds as IRAK-4 Inhibitors” (AURIGENE DISCOVERY TECHNOLOGIES LIMITED, priority 2015, published 2018).
Structures can show the parent of a compound that is named as a salt.

Molecular target: T1, recombinant IRAK-4 kinase (Homo sapiens, UniProt Q9NWZ3)
T1 construct: purchased Millipore, USA
T1 sequence (Q9NWZ3 1-460): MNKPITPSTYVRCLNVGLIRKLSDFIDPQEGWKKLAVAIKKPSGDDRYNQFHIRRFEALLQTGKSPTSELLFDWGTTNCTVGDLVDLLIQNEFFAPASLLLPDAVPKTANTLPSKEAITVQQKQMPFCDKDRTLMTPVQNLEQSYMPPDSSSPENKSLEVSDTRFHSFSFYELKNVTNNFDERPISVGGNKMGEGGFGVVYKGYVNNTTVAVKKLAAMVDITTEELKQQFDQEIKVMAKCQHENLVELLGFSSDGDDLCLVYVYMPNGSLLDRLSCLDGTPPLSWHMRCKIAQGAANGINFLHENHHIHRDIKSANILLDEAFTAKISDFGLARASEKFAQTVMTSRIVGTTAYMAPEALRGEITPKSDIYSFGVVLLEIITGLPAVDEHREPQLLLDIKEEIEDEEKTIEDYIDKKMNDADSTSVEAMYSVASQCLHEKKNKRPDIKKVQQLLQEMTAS
Assay: IRAK-4 Biochemical Assay (TR-FRET, percent inhibition)
Details: TR-FRET, 20 μM ATP, 100 nM Biotin Histone H3; for inhibition at 0.1 µM: read-out: % inhibition of IRAK-4 @0.1 μM, compound at 0.1 μM; for inhibition at 1 µM: read-out: % inhibition of IRAK-4 @ 1 μM, compound at 1 μM
Summary of the method: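 IRAK-4 pre-incubated with compound 30 min at room temperature in Tris-HCl pH 7.5 buffer with MgCl2, MnCl2 and DTT, then reacted 30 min with 100 nM biotin-histone H3 and 20 μM ATP. EDTA stop with Eu-anti-phospho-H3 (Ser10) and APC-streptavidin. Percent inhibition derived from the 665/615 nm emission ratio at 340 nm excitation.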

| inhibition at 0.1 µM [%] | inhibition at 1 µM [%] | % inhibition of IRAK-4 @0.1 μM (compound at 0.1 μM) [%] | % inhibition of IRAK-4 @ 1 μM (compound at 1 μM) [%] | SMILES |
| --- | --- | --- | --- | --- |
| 87 | 99 |  |  | Cc1cc(-c2nc(C(=O)Nc3cc4oc(N5CCOCC5)nc4nc3N3CC[C@@H](OC(=O)CN)C3)co2)ccn1 [Example 97, (R)-1-(6-(2-(2-methylpyridin-4-yl)oxazole-4-carboxamido)-2-morpholinooxazolo[4,5-b]pyridin-5-yl)pyrrolidin-3-yl glycinate] |
| 94 | 97 |  |  | N[C@H]1CCCCC1Nc1ccn2ncc(C(=O)Nc3cc4sc(N5CCOCC5)nc4nc3C3CC3)c2n1 (stereo partly shown) [Example 98, 2,2,2-trifluoroacetate] |
| 89 | 96 |  |  | NC1CCN(c2ccn3ncc(C(=O)Nc4cc5sc(N6CCOCC6)nc5nc4C4CC4)c3n2)CC1 [Example 99, 5-(4-aminopiperidin-1-yl)-N-(5-cyclopropyl-2-morpholinothiazolo[4,5-b]pyridin-6-yl)pyrazolo[1,5-a]pyrimidine-3-carboxamide 2,2,2-trifluoroacetate] |
| 96 | 99 |  |  | O=C(Nc1cc2sc(N3CCOCC3)nc2nc1C1CC1)c1cnn2ccc(N3CCC[C@H](O)C3)nc12 [Example 100, (S)-N-(5-cyclopropyl-2-morpholinothiazolo[4,5-b]pyridin-6-yl)-5-(3-hydroxypiperidin-1-yl)pyrazolo[1,5-a]pyrimidine-3-carboxamide] |
| 96 | 98 |  |  | O=C(Nc1cc2sc(N3CCOCC3)nc2nc1C1CC1)c1cnn2ccc(N3CCC(O)CC3)nc12 [Example 101, N-(5-cyclopropyl-2-morpholinothiazolo[4,5-b]pyridin-6-yl)-5-(4-hydroxypiperidin-1-yl)pyrazolo[1,5-a]pyrimidine-3-carboxamide] |
| 21 | 56 |  |  | NC1CCCN(c2ccn3ncc(C(=O)Nc4cc5sc(N6CCOCC6)nc5nc4N4CC[C@@H](O)C4)c3n2)C1 (stereo partly drawn) [Example 102, 5-(3-aminopiperidin-1-yl)-N-(5-((R)-3-hydroxypyrrolidin-1-yl)-2-morpholinothiazolo[4,5-b]pyridin-6-yl)pyrazolo[1,5-a]pyrimidine-3-carboxamide hydrochloride] |
| 92 | 97 |  |  | O=C(Nc1cc2sc(N3CCOCC3)nc2nc1N1CC[C@@H](O)C1)c1cnn2cccnc12 [Example 103, (R)-N-(5-(3-hydroxypyrrolidin-1-yl)-2-morpholinothiazolo[4,5-b]pyridin-6-yl)pyrazolo[1,5-a]pyrimidine-3-carboxamide hydrochloride] |
| 95 | 97 |  |  | O=C(Nc1cc2sc(N3CCOCC3)nc2nc1N1CCCCC1)c1cnn2cccnc12 [Example 104, N-(2-morpholino-5-(piperidin-1-yl)thiazolo[4,5-b]pyridin-6-yl)pyrazolo[1,5-a]pyrimidine-3-carboxamide hydrochloride] |
| 96 | 97 |  |  | O=C(Nc1cc2sc(N3CCOCC3)nc2nc1C1CC1)c1cnn2cccnc12 [Example 105, N-(5-cyclopropyl-2-morpholinothiazolo[4,5-b]pyridin-6-yl)pyrazolo[1,5-a]pyrimidine-3-carboxamide] |
|  |  | 93 | 97 | Cl.O=C(Nc1cc2sc(N3CCOCC3)nc2nc1C1CC1)c1cnn2cccnc12 [Example 106, N-(5-cyclopropyl-2-morpholinothiazolo[4,5-b]pyridin-6-yl)pyrazolo[1,5-a]pyrimidine-3-carboxamide hydrochloride] |
| 57 | 92 |  |  | O=C(Nc1cc2oc(N3CCOCC3)nc2nc1C1CC1)c1cnn2cccnc12 [Example 107, N-(5-cyclopropyl-2-morpholinooxazolo[4,5-b]pyridin-6-yl)pyrazolo[1,5-a]pyrimidine-3-carboxamide hydrochloride] |
